Some test systems named below: BT-549 breast; HOP-62 NSCLC; HS 578T breast; HL-60(TB) leukemia; SN12C renal; HCC-2998 colon; HCT-15 colon; NCI-H226 lung; COLO 205 colon; SNB-19 CNS; HT29 colon; SR leukemia; UO-31 renal; UACC-257 melanoma; MCF7 breast; SW-620 colon; A549 NSCLC; IGROV1 ovarian.
Common to all, as to assay: NCI tumour cell line growth inhibition, 48 h

This passage reports TGI results from PubChem BioAssay (NCI).

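Tested at 5 concentrations; 48 h exposure; 96-well plates; endpoints linearly interpolated, else capped at highest concentration. At the TGI there is no net growth.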

As to `COc1ccc(-c2nnc3n(Cc4ccccc4)c4ccccc4n3c2=O)cc1`, the TGI in the experiment on BT-549 breast is more than 100 µM; with HOP-62 NSCLC it was 12.2 µM; in the experiment on HS 578T breast it was more than 100 µM; in the experiment on HL-60(TB) leukemia, more than 100 µM; in the experiment on SN12C renal it was more than 100 µM; with HCC-2998 colon, more than 100 µM. In addition, the TGI with HCT-15 colon is more than 100 µM; in the experiment with NCI-H226 lung it was 97.4 µM; in the experiment with COLO 205 colon it was more than 100 µM; in the experiment on SNB-19 CNS it was 80 µM; in the experiment on HT29 colon, more than 100 µM; with SR leukemia, more than 100 µM. For the same molecule, the TGI with UO-31 renal was more than 100 µM; in the experiment on UACC-257 melanoma, more than 100 µM; with MCF7 breast, more than 100 µM; with SW-620 colon, more than 100 µM; in the experiment on A549 NSCLC, more than 100 µM; with IGROV1 ovarian, 63.7 µM.

As to `Cc1ccc(S(=O)(=O)N2c3ccccc3[C@H]3CCC=C[C@H]32)cc1`, the TGI was more than 100 µM with BT-549 breast; 67.4 µM in the experiment with HOP-62 NSCLC; 86.3 µM with HS 578T breast; 28.8 µM in the experiment on HL-60(TB) leukemia; more than 63.1 µM in the experiment on SN12C renal; more than 76.5 µM with HCC-2998 colon. The TGI in the experiment on HCT-15 colon was more than 69.1 µM; with NCI-H226 lung it was 47.3 µM; in the experiment with COLO 205 colon it was 24.6 µM; with SNB-19 CNS, more than 100 µM; in the experiment with HT29 colon, 19.2 µM; with SR leukemia it was 65.2 µM. Besides, the TGI in the experiment with UO-31 renal is 34.9 µM; in the experiment on UACC-257 melanoma it was more than 95.4 µM; with MCF7 breast it was more than 100 µM; in the experiment on SW-620 colon, 47.7 µM; in the experiment with A549 NSCLC, more than 100 µM; in the experiment on IGROV1 ovarian it was more than 100 µM.

With `COc1cccc(C2ON=C(c3ccccc3)N2C23CC4CC(CC(C4)C2)C3)c1` (configuration not stated), the TGI in the experiment with BT-549 breast, with HOP-62 NSCLC, with HS 578T breast, in the experiment on HL-60(TB) leukemia, in the experiment on SN12C renal and with HCC-2998 colon was more than 10 µM each time. The TGI in the experiment on HCT-15 colon, in the experiment on NCI-H226 lung, with COLO 205 colon, in the experiment with SNB-19 CNS, in the experiment on HT29 colon and with SR leukemia was more than 10 µM throughout. In addition, the TGI with UACC-257 melanoma, in the experiment with MCF7 breast, with SW-620 colon, with A549 NSCLC and in the experiment on IGROV1 ovarian was more than 10 µM throughout.

For `CSc1c(C(=O)Nc2ccc(C)cc2)c(N)n(N)c(=O)c1C#N`, the TGI in the experiment on BT-549 breast, in the experiment on HS 578T breast, with HL-60(TB) leukemia, with SN12C renal, with HCC-2998 colon and in the experiment on HCT-15 colon was more than 100 µM each time. Moreover, the TGI in the experiment on NCI-H226 lung, with COLO 205 colon, with SNB-19 CNS, with HT29 colon, with SR leukemia and in the experiment on UO-31 renal was more than 100 µM each time. In addition, the TGI in the experiment with UACC-257 melanoma, in the experiment on MCF7 breast, with SW-620 colon, in the experiment on A549 NSCLC and in the experiment on IGROV1 ovarian was more than 100 µM throughout.

Regarding `O=C1C(Cl)C2(CC(/C=C/c3ccccc3O)=NN2c2cccc(S(=O)(=O)O)c2)N1c1nc2ccccc2s1` (configuration not stated), the TGI with BT-549 breast was 34.9 µM; in the experiment on HS 578T breast, more than 100 µM; in the experiment with HL-60(TB) leukemia it was 14.5 µM; with SN12C renal, 27.8 µM; with HCC-2998 colon, 29 µM; in the experiment on HCT-15 colon, 44.6 µM. For the same molecule, the TGI with NCI-H226 lung was 51.2 µM; in the experiment with COLO 205 colon, 38.7 µM; in the experiment with SNB-19 CNS, more than 100 µM; in the experiment with HT29 colon it was 39 µM; in the experiment on SR leukemia, 58 µM; in the experiment on UO-31 renal, 26.2 µM. The TGI in the experiment on UACC-257 melanoma is 42 µM; with MCF7 breast it was 31.8 µM; with SW-620 colon it was 42.9 µM; in the experiment on A549 NSCLC, 82.5 µM; in the experiment on IGROV1 ovarian, 31.2 µM.

`Cc1c(/C=N/NC(=S)Nc2ccccc2)c(=O)n(-c2ccccc2)n1C`: the TGI with BT-549 breast, in the experiment with HOP-62 NSCLC, with HS 578T breast, with HL-60(TB) leukemia, in the experiment with HCC-2998 colon and in the experiment with HCT-15 colon was more than 100 µM in each case. For the same molecule, the TGI in the experiment on NCI-H226 lung, with COLO 205 colon, with SNB-19 CNS, in the experiment on HT29 colon, in the experiment with SR leukemia and in the experiment with UO-31 renal was more than 100 µM in each case. In addition, the TGI in the experiment on UACC-257 melanoma, in the experiment with MCF7 breast, in the experiment on SW-620 colon and with IGROV1 ovarian was more than 100 µM each time.

Consider `N#CCOc1ccc(/C=C/C(=O)c2ccc(Cl)cc2)cc1`, for which the TGI was 11.7 µM in the experiment with BT-549 breast; 57.5 µM in the experiment on HOP-62 NSCLC; 50.9 µM with HS 578T breast; more than 100 µM in the experiment on HL-60(TB) leukemia; more than 100 µM in the experiment on SN12C renal; 98.8 µM with HCC-2998 colon. Further, the TGI is more than 100 µM in the experiment with HCT-15 colon; more than 100 µM in the experiment with NCI-H226 lung; 61.7 µM in the experiment on SNB-19 CNS; more than 100 µM in the experiment on HT29 colon; more than 100 µM with SR leukemia; 88.6 µM in the experiment on UO-31 renal. The TGI in the experiment on UACC-257 melanoma was more than 100 µM; with MCF7 breast it was 54.1 µM; with SW-620 colon, 70.4 µM; in the experiment with A549 NSCLC, more than 100 µM; in the experiment with IGROV1 ovarian, 60.4 µM.

`CN1C(=O)C(C(N)=O)C2CC1(C)Oc1ccccc12` (configuration not stated): the TGI in the experiment with BT-549 breast, with HOP-62 NSCLC, in the experiment with HS 578T breast, in the experiment on HL-60(TB) leukemia, with SN12C renal and in the experiment on HCC-2998 colon was more than 100 µM throughout. Also, the TGI in the experiment with HCT-15 colon, in the experiment with NCI-H226 lung, in the experiment on COLO 205 colon, with SNB-19 CNS, with HT29 colon and in the experiment with SR leukemia was more than 100 µM in each case. The TGI with UACC-257 melanoma, in the experiment with MCF7 breast, in the experiment with SW-620 colon, in the experiment on A549 NSCLC and with IGROV1 ovarian was more than 100 µM each time.
